In brackets after ≈: the same amount, converted by molar mass.
Assays:
Plasmodium falciparum [1] = experiment: Antimalarial activity against drug-resistant Plasmodium falciparum C235 after 72 hrs by SYBR green I staining-based fluorescence assay; format: functional, organism-based; details: C235, 72 h
Plasmodium falciparum [2] = experiment: Antimalarial activity against drug-sensitive Plasmodium falciparum D6 after 72 hrs by SYBR green I staining-based fluorescence assay; format: functional, organism-based; details: D6, 72 h
Plasmodium falciparum [3] = experiment: Ratio of IC50 for drug-resistant Plasmodium falciparum C235 to IC50 for drug-sensitive Plasmodium falciparum D6; format: functional
HepG2 = experiment: Cytotoxicity against human HepG2 cells after 48 hrs by MTT assay; format: cell-based; details: HepG2, 48 h
Plasmodium berghei [4] = experiment: Antimalarial activity against liver stage Plasmodium berghei ANKA sporozoites infected in human HepG2 cells after 48 hrs by luciferase reporter gene assay; format: functional, organism-based; details: HepG2, 48 h
[5] = Half life in human plasma at 1 mM by LC/MS analysis; format: ADME, cell-free
[6] = Half life in mouse plasma at 1 mM by LC/MS analysis; format: ADME, cell-free
[7] = Apparent permeability from apical to basolateral side in MDCK cells at 10 uM after 1 hr by LC/MS analysis; format: ADME, cell-based, Canis lupus familiaris; details: dog
[8] = Apparent permeability from basolateral to apical side in MDCK cells at 10 uM after 1 hr by LC/MS analysis; format: ADME, cell-based, Canis lupus familiaris; details: dog
[9] = Efflux ratio of apparent permeability from basolateral to apical side to apical to basolateral side in MDCK cells; format: ADME, cell-based, Canis lupus familiaris; details: dog
Plasmodium berghei [10] = experiment: Ratio of mefloquine IC50 to compound IC50 for liver stage Plasmodium berghei ANKA sporozoites infected in human HepG2 cells; format: functional
Plasmodium berghei [11] = experiment: Ratio of chloroquine IC50 to compound IC50 for liver stage Plasmodium berghei ANKA sporozoites infected in human HepG2 cells; format: functional

Row | Structure (SMILES) | IC50 (Plasmodium falciparum [1]) | IC50 (Plasmodium falciparum [2]) | Ratio IC50 (Plasmodium falciparum [3]) | IC50 (HepG2) | IC50 (Plasmodium berghei [4]) | half-life [5] | half-life [6] | Papp A→B at 1 h, 10 µM [7] | Papp B→A at 1 h, 10 µM [8] | efflux ratio [9] | Ratio IC50 (Plasmodium berghei [10]) | Ratio IC50 (Plasmodium berghei [11])
1 | Cl.O=C1/C(=C/c2ccccc2)CN(C(=O)c2ccc(OCCN3CCCCC3)cc2)C/C1=C\c1ccccc1 | 0.74 µg/mL | 0.794 µg/mL | 0.93 | – | – | – | – | – | – | – | – | –
2 | CN(C)CCOc1ccc(C(=O)N2C/C(=C\c3ccccc3)C(=O)/C(=C/c3ccccc3)C2)cc1.Cl | > 2 µg/mL | 1.75 µg/mL | >1.14 | – | – | – | – | – | – | – | – | –
3 | CN(C)CCOc1ccc(C(=O)N2C/C(=C\c3ccc(Cl)cc3)C(=O)/C(=C/c3ccc(Cl)cc3)C2)cc1.Cl | 0.565 µg/mL | 0.497 µg/mL | 1.14 | – | – | – | – | – | – | – | – | –
4 | Cl.O=C1/C(=C/c2ccc([N+](=O)[O-])cc2)CN(C(=O)c2ccc(OCCN3CCOCC3)cc2)C/C1=C\c1ccc([N+](=O)[O-])cc1 | 0.53 µg/mL | 0.433 µg/mL | 1.22 | > 2 µg/mL | 0.357 µg/mL | – | – | – | – | – | – | –
5 | Cc1ccc(/C=C2\CN(C(=O)c3ccc(OCCN(C)C)cc3)C/C(=C\c3ccc(C)cc3)C2=O)cc1.Cl | > 2 µg/mL | > 2 µg/mL | – | > 2 µg/mL | > 2 µg/mL | – | – | – | – | – | – | –
6 | Cc1ccc(/C=C2\CN(C(=O)c3ccc(OCCN4CCCCC4)cc3)C/C(=C\c3ccc(C)cc3)C2=O)cc1.Cl | 0.713 µg/mL | 0.682 µg/mL | 1.05 | – | – | – | – | – | – | – | – | –
7 | CN(C)CCOc1ccc(C(=O)N2C/C(=C\c3ccc([N+](=O)[O-])cc3)C(=O)/C(=C/c3ccc([N+](=O)[O-])cc3)C2)cc1.Cl | 0.372 µg/mL | 0.424 µg/mL | 0.88 | > 2 µg/mL | 0.31 µg/mL | – | – | – | – | – | – | –
8 | CCN(CC)CCOc1ccc(C(=O)N2C/C(=C\c3ccc([N+](=O)[O-])cc3)C(=O)/C(=C/c3ccc([N+](=O)[O-])cc3)C2)cc1.Cl | 0.146 µg/mL | 0.202 µg/mL | 0.72 | > 2 µg/mL | 0.186 µg/mL | – | – | – | – | – | – | –
9 | Cl.O=C1/C(=C/c2ccc([N+](=O)[O-])cc2)CN(C(=O)c2ccc(OCCN3CCCCC3)cc2)C/C1=C\c1ccc([N+](=O)[O-])cc1 | 0.288 µg/mL | 0.25 µg/mL | 1.15 | > 2 µg/mL | 0.165 µg/mL | – | – | – | – | – | – | –
10 | O=C1/C(=C/c2ccc(Cl)cc2)CNC/C1=C\c1ccc(Cl)cc1 | 0.128 µg/mL (≈ 0.372 µM) | 0.103 µg/mL (≈ 0.299 µM) | 1.24 | > 2 µg/mL | 0.597 µg/mL (≈ 1.73 µM) | > 60 min | > 60 min | – | – | – | – | –
11 | CCN(CC)CCOc1ccc(C(=O)N2C/C(=C\c3ccc(C)cc3)C(=O)/C(=C/c3ccc(C)cc3)C2)cc1.Cl | 0.555 µg/mL | 0.536 µg/mL | 1.03 | > 2 µg/mL | 0.483 µg/mL | – | – | – | – | – | – | –
12 | CCN(CC)CCOc1ccc(C(=O)N2C/C(=C\c3ccc(Cl)cc3)C(=O)/C(=C/c3ccc(Cl)cc3)C2)cc1.Cl | > 2 µg/mL | > 2 µg/mL | – | – | – | – | – | – | – | – | – | –
13 | O[C@@H](c1cc(C(F)(F)F)nc2c(C(F)(F)F)cccc12)[C@H]1CCCCN1 (relative stereo) [(S,R)-MEFLOQUINE] | 0.0167 µg/mL (≈ 0.0441 µM) | 0.0066 µg/mL (≈ 0.0174 µM) | 2 | > 2 µg/mL | > 2 µg/mL | > 60 min | > 60 min | 0.6 ×10⁻⁶ cm/s | 3.7 ×10⁻⁶ cm/s | 6.17 | – | –
14 | Cc1ccc(/C=C2\CNC/C(=C\c3ccc(C)cc3)C2=O)cc1 | 0.285 µg/mL (≈ 0.939 µM) | 0.249 µg/mL (≈ 0.821 µM) | 1.15 | > 2 µg/mL | 0.159 µg/mL (≈ 0.524 µM) | 17.2 min | 14.6 min | – | – | – | – | –
15 | CCN(CC)CCCC(C)Nc1ccnc2cc(Cl)ccc12.O=P(O)(O)O.O=P(O)(O)O (stereo not drawn) [CHLOROQUINE PHOSPHATE] | – | – | – | > 2 µg/mL | > 2 µg/mL | – | – | – | – | – | – | –
16 | Cc1ccc(/C=C2\CN(C(=O)c3ccc(OCCN4CCOCC4)cc3)C/C(=C\c3ccc(C)cc3)C2=O)cc1.Cl | > 2 µg/mL | 0.846 µg/mL | >2.36 | – | – | – | – | – | – | – | – | –
17 | O=C1/C(=C/c2ccc([N+](=O)[O-])cc2)CNC/C1=C\c1ccc([N+](=O)[O-])cc1 | 0.0412 µg/mL (≈ 0.113 µM) | 0.0375 µg/mL (≈ 0.103 µM) | 1.1 | > 2 µg/mL | 0.356 µg/mL (≈ 0.974 µM) | > 60 min | 22.5 min | 0.28 ×10⁻⁶ cm/s | – | 0.01 | – | –
18 | Cl.O=C1/C(=C/c2ccc(Cl)cc2)CN(C(=O)c2ccc(OCCN3CCCCC3)cc2)C/C1=C\c1ccc(Cl)cc1 | > 2 µg/mL | > 2 µg/mL | >1.06 | – | – | – | – | – | – | – | – | –
19 | Cl.O=C1/C(=C/c2ccccc2)CN(C(=O)c2ccc(OCCN3CCOCC3)cc2)C/C1=C\c1ccccc1 | > 2 µg/mL | 1.42 µg/mL | >1.41 | – | – | – | – | – | – | – | – | –
20 | CCN(CC)CCOc1ccc(C(=O)N2C/C(=C\c3ccccc3)C(=O)/C(=C/c3ccccc3)C2)cc1.Cl | 0.311 µg/mL | 0.412 µg/mL | 0.76 | > 2 µg/mL | 0.383 µg/mL | – | – | – | – | – | – | –
21 | O=C1/C(=C/c2ccccc2)CNC/C1=C\c1ccccc1 | 0.162 µg/mL (≈ 0.588 µM) | 0.139 µg/mL (≈ 0.505 µM) | 1.17 | > 2 µg/mL | 0.0935 µg/mL (≈ 0.34 µM) | 11.8 min | 19.5 min | 5.74 ×10⁻⁶ cm/s | 0.1 ×10⁻⁶ cm/s | 0.02 | >21 | >21
22 | CCN(CC)CCCC(C)Nc1ccnc2cc(Cl)ccc12 (stereo not drawn) [CHLOROQUINE] | – | – | – | – | – | > 60 min | > 60 min | 13 ×10⁻⁶ cm/s | 14 ×10⁻⁶ cm/s | – | – | –

From ChEMBL document CHEMBL3091370, “3,5-bis(benzylidene)-4-piperidones and related N-acyl analogs: a novel cluster of antimalarials targeting the liver stage of Plasmodium falciparum” (Bioorg Med Chem, 2013)
